Data set [1] concerns p53-knockout cells derived from human colon cancer cells HCT-116. In words: Cell growth by WST assay, combined use of SPL-B and paclitaxel. As to conditions: HCT-116, 72 h, three days. In kind it is cell-based. The protocol: p53-knockout cells derived from human colon cancer cells HCT-116 were cultured after combined administration of paclitaxel and SPL-B. Three days after cultivation, the survival rate of the cells was measured by WST assay.

The target in data set [2] is T1, TACC3-DsRed fusion protein (Homo sapiens, UniProt Q9Y6A5).
T1 construct: expressed in transfected cells; host or cells: HEK293T
In words: Chemical array screening for compounds binding to TACC3-DsRed fusion protein. As to conditions: compound immobilized on chemical array, cell lysate. The protocol: The present inventors screened for compounds targeting at TACC3 using a chemical array (FIG. 1).
According to the protocol of Miyazaki et al. (Non Patent Literature 13), a cell lysate containing a TACC3-DsRed fusion protein was contacted with the chemical array to screen for a compound binding to the TACC3-DsRed fusion protein (FIG. 1, upper diagram).
The cell lysate containing a TACC3-DsRed fusion protein is prepared as follows.
Human TACC3 cDNA was cloned into pDsRed-Express-N1 (Registered Trade Mark) (manufactured by Clontech Laboratories, Inc.), which was then transferred to HEK293T cells. Forty eight hours after transfection, the cells were collected. The obtained cells were sonicated in PBS and centrifuged for removal of insoluble substances to obtain a cell lysate. The cell lysate was confirmed the presence of the TACC3-DsRed fusion protein using anti-TACC3 and anti-DsRed antibodies.
The cell lysate containing a TACC3-DsRed fusion protein was contacted with the chemical array. After washing, the TACC3-DsRed fusion protein bound with a compound immobilized on the chemical array was detected. The detection of the TACC3-DsRed fusion protein with a compound was carried out by the excitation of a chemical array slide with a wavelength of 532 nm and the detection of fluorescence at 575 nm

The subject of a further data set is cultured cells. In words: Visual screening (microscopic observation) for abnormal cell division in cultured cells. In kind it is cell-based. The note with it: added into culture medium. The source says: As a result of screening 6800 compounds, 70 compounds were bound with the TACC3-DsRed fusion protein. These 70 compounds recognized to bind to the TACC3-DsRed fusion protein were each added into a culture medium of cultured cells. Compounds inducing abnormal cell division were selected by microscopic observation. As a result, 4 compounds were screened for as compounds inhibiting cell division (FIG. 1, lower diagram, visual screening).

Data set [3] relates to SKOV-3 cells expressing EGFP-α-tubulin. In words: Mitotic arrest of synchronized EGFP-α-tubulin-expressing SKOV-3 cells, time-lapse single-cell analysis. In kind it is cell-based. As to conditions: for EC50: Homo sapiens, SK-OV-3, 72 h, mitotic arrest, EC50=50% arrest rate, double thymidine block, time-lapse 3 days, at least 50 cells, read-out: SKOV3 EC50; for inhibitory effects on cell growth: summary of Table 2 (SKOV-3 mitotic arrest and lymphoma cell death). As to the method: The EGFP-α-tubulin-expressing cells used in the assay will be described. In order to observe mitosis under a fluorescence microscope, cells expressing EGFP-α-tubulin (fusion protein of a fluorescent protein, EGFP, and α-tubulin) were prepared. A system observable under a fluorescence microscope without cell fixation was prepared.
Ovary cancer cells SKOV-3 were cultured in an RPMI1640 medium supplemented with 5% fetal bovine serum. Stable cells expressing EGFP-α-tubulin were transduced by lentiviral transduction using pLenti4/V5-DEST vectors (Registered Trade Mark) (manufactured by Invitrogen Corp.) and selected by the FACS sorting of infected cells using Zeocin (Registered Trade Mark) and subsequent FACSAria (Registered Trade Mark) (Becton, Dickinson and Company).
The compounds NPD2448, NPD2568, NPD3574, NPD4089, and C7—O-propylated NPD3574 were each added at varying concentrations to the culture medium of SKOV-3 cells expressing EGFP-α-tubulin and analyzed for their effect on cell division.
The SKOV-3 cells expressing EGFP-α-tubulin were synchronized by thymidine block to analyze the effect on cell division of each compound. As shown in the upper part of FIG. 2, each compound was added to the culture medium after the 1st thymidine block. After synchronization by the second thymidine block, images were taken every 2 minutes for 3 days using Leica AF6000 and ×20/0.5 Plan Fluotar objective lens in a phenol red-free RPMI1640 medium supplemented with 5% fetal bovine serum. These time-lapse images were analyzed using ImageJ 1.42a software, and the time of mitotic arrest was determined by visual judgment. The duration of mitosis was manually determined from the image sequences of at least 50 cells.
The mitotic arrest (EC50=50% arrest rate) was tested by the microscopic analysis of individual single cells.
EGFP-α-tubulin-expressing SKOV-3 cells synchronized by double thymidine block in the same way as in Example 2 were treated with each synthesized compound and subjected to time-lapse photography for 3 days. At least 50 cells were observed. The time of arrest of each cell was calculated, and EC50 was determined therefrom.
EGFP-α-tubulin-expressing SKOV-3 cells supplemented with each of SPL-A and SPL-B at varying concentrations were synchronized by double thymidine block in the same way as in Example 2. Analysis based on single cells was conducted by time-lapse photography. The duration of mitosis was measured from the image sequences of at least 50 cells.

Data set [4] can be described thus: Solubility remarks of Table 2. In kind it is physicochemical. The note with it: Table 2 remark.
Another data set relates to mouse lymphoma cell line. In words: Cell death of lymphoma (survival rate, WST-1). In kind it is cell-based. The note with it: 72 h, IC50=50% survival rate, three days. As to the method: The synthesized compounds were analyzed for their activity against cell death induction using a mouse lymphoma cell line (see Non Patent Literature 12), which was a cell line derived from thymic lymphoma developed in p53KO mouse.
The number of the lymphoma cells was adjusted to 1.2×10^5 cells/ml. The cells were inoculated at a concentration of 50 μl/well to a 96-well culture dish. A medium containing each RT compound as the novel compound of the present invention at twice the concentration of 50 μl was further added thereto (final concentration: 0.021 to 13.3 μg/ml). Three days after cultivation, the survival rate was calculated using WST-1 reagent (manufactured by F. Hoffmann-La Roche, Ltd.).
A general note: Formazan colour is commonly taken as a measure of viable cells.

In brackets after ≈: the same amount, converted by molar mass.

In general, IC50 refers to the concentration that gives 50% inhibition. Consider `CC(=O)O[C@H]1C(=O)[C@@]2(C)[C@H]([C@H](OC(=O)c3ccccc3)[C@]3(O)C[C@H](OC(=O)[C@H](O)[C@@H](NC(=O)c4ccccc4)c4ccccc4)C(C)=C1C3(C)C)[C@]1(OC(C)=O)CO[C@@H]1C[C@@H]2O` [paclitaxel], for which the IC50 in data set [1] (adding SPL-B at 150 μM) stood at 7.7 nM; in data set [1] (adding SPL-B at 300 μM), 7.54 nM; in data set [1] (in the absence of SPL-B) it was 8.34 nM.
For `CCCCN(C)Cc1c(O)ccc2c(-c3cc4cc(Br)ccc4oc3=O)cc(=O)oc12` [NPD4089], the “binding to the TACC3-DsRed fusion protein” value (shortened to “binding”) in data set [2] is on record as “bound to the TACC3-DsRed fusion protein”. Further, in the data set on cultured cells, the abnormal cell division result is “induced abnormal cell division”.
In general, EC50 refers to the concentration giving half of the maximal effect. For `O=c1cc(-c2cc3cc(Cl)ccc3oc2=O)c2ccc(O)cc2o1` [RT-018], the EC50 in data set [3] was above 66.7 µg/mL. Besides, the “Remarks: solubility” value in data set [4] was “Poorly soluble in DMSO”.
`COCCN(CCOC)Cc1c(OCC=C(C)C)ccc2c(-c3cc4ccccc4oc3=O)cc(=O)oc12` [RT-022]: the “Remarks: start of mitosis” value in data set [3] (At 66.7 μg/ml) is “μg/ml, mitosis did not”. Moreover, the EC50 in data set [3] was above 66.7 µg/mL. Moreover, in data set [4], the “Remarks: solubility” value is reported as “Insoluble. At 66.7”.
For `C=CCOc1ccc2c(-c3cc4ccccc4oc3=O)cc(=O)oc2c1CN(CCOC)CCOC` [RT-021], the EC50 in data set [3] is above 66.7 µg/mL. In data set [4], the “Remarks: solubility” value was “Insoluble”.
`COCCN(CCOC)Cc1c(O)ccc2c(-c3cc4ccccc4oc3=O)cc(=O)oc12` [NPD3574]: in the data set with mouse lymphoma cell line, inhibition was half-maximal at 1.26 µg/mL (≈ 2.79 µM) (IC50). Moreover, in data set [2], the “binding” value is on record as “bound to the TACC3-DsRed fusion protein”. In data set [3], the EC50 amounted to 0.85 µg/mL (≈ 1.88 µM) and the “inhibitory effects on cell growth” value was “remarkable inhibitory effects on cell growth”. For the same molecule, the abnormal cell division entry with cultured cells is recorded as “induced abnormal cell division”.
`CCCN(CCC)Cc1c(O)ccc2c(-c3cc4ccccc4oc3=O)cc(=O)oc12` [NPD2448]: the “binding” value in data set [2] is reported as “bound to the TACC3-DsRed fusion protein”. Further, the abnormal cell division entry in the data set with cultured cells is “induced abnormal cell division”.
In the case of `O=c1cc(-c2cc3cc(Cl)ccc3oc2=O)c2ccc(O)c(CN3CCCCCC3)c2o1` [NPD2568], in data set [2], the “binding” value was “bound to the TACC3-DsRed fusion protein”. Also, the abnormal cell division result in the data set on cultured cells was “induced abnormal cell division”.
`CCN(CCN(C)C)Cc1c(O)ccc2c(-c3cc4ccccc4oc3=O)cc(=O)oc12` [RT-006] showed an IC50 with mouse lymphoma cell line of 3.3 µg/mL (≈ 7.6 µM). Moreover, in data set [3], the EC50 came to 1.15 µg/mL (≈ 2.65 µM) and the “inhibitory effects on cell growth” value was “remarkable inhibitory effects on cell growth”.
In the case of `C#CCOc1ccc2c(-c3cc4ccccc4oc3=O)cc(=O)oc2c1CN(CCOC)CCOC` [RT-017], in data set [3], the EC50 was above 66.7 µg/mL. The “Remarks: solubility” value in data set [4] is reported as “Insoluble”.
The molecule `CC1CCN(Cc2c(O)ccc3c(-c4cc5ccccc5oc4=O)cc(=O)oc23)CC1` [RT-010] registered an IC50 in the data set with mouse lymphoma cell line of 1.64 µg/mL (≈ 3.93 µM). Further, in data set [3], the EC50 amounted to 0.94 µg/mL (≈ 2.25 µM) and the “inhibitory effects on cell growth” value is “remarkable inhibitory effects on cell growth”.

The values above are taken from US20160052918A1, “SMALL COMPOUNDS TARGETING TACC3” (JAPANESE FOUNDATION FOR CANCER RESEARCH, priority 2012, published 2016).
